Read-outs that look alike come from different tables or passages of the source.
Tests used:
[1] = biological target: T1, TLR8 (Homo sapiens, UniProt Q9NR97); assay: In vitro human TLR8 binding reporter assay (HEK-Blue, NF-kB/AP1-inducible SEAP); format: cell-based; settings: read-out: TLR8 Agonist EC50
T1 construct: human HEK-Blue cells co-expressing a TLR7 or TLR8 gene
T1 sequence (Q9NR97 27-1041): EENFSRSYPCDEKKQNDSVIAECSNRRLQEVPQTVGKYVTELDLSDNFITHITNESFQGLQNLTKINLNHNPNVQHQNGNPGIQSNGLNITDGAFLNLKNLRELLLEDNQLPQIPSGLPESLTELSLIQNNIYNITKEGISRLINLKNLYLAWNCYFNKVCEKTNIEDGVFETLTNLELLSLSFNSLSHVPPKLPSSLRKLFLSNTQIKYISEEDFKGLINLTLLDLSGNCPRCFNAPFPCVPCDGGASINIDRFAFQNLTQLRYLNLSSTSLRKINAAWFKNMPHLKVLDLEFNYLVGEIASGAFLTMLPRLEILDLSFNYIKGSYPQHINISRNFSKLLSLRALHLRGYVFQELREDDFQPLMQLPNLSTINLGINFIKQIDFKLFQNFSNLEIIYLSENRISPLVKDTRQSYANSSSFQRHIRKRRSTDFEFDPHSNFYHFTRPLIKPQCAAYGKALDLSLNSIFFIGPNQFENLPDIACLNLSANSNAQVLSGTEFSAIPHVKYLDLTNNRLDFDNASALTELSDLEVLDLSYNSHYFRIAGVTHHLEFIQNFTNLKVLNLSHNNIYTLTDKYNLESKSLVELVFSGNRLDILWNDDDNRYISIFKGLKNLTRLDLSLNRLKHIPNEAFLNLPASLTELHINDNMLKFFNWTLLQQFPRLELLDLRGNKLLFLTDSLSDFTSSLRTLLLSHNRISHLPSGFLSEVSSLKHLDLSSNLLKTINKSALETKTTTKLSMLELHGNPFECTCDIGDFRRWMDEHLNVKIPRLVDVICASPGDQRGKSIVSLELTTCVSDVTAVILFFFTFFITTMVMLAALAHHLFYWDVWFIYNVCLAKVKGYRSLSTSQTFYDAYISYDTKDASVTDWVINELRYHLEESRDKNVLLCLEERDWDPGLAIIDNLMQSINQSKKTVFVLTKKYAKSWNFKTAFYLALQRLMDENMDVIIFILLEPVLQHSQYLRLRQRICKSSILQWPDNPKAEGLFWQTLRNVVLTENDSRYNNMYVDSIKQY
Summary of the method: (§1)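 Cells are seeded and grown for 24 h. Compounds or DMSO are then added and incubated 18 h at 37 °C. Quanti-Blue is added, and SEAP is read after thirty minutes. EC50 values are normalized, with RLU from 50 μM reference standard setting 100% Ymax.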

[2] = biological target: T2, TLR7 (Homo sapiens, UniProt Q9NYK1); assay: In vitro human TLR7 binding reporter assay (HEK-Blue, NF-kB/AP1-inducible SEAP); format: cell-based; settings: read-out: TLR7 Agonist EC50
T2 construct: human HEK-Blue cells co-expressing a TLR7 or TLR8 gene
T2 sequence (Q9NYK1 27-1049): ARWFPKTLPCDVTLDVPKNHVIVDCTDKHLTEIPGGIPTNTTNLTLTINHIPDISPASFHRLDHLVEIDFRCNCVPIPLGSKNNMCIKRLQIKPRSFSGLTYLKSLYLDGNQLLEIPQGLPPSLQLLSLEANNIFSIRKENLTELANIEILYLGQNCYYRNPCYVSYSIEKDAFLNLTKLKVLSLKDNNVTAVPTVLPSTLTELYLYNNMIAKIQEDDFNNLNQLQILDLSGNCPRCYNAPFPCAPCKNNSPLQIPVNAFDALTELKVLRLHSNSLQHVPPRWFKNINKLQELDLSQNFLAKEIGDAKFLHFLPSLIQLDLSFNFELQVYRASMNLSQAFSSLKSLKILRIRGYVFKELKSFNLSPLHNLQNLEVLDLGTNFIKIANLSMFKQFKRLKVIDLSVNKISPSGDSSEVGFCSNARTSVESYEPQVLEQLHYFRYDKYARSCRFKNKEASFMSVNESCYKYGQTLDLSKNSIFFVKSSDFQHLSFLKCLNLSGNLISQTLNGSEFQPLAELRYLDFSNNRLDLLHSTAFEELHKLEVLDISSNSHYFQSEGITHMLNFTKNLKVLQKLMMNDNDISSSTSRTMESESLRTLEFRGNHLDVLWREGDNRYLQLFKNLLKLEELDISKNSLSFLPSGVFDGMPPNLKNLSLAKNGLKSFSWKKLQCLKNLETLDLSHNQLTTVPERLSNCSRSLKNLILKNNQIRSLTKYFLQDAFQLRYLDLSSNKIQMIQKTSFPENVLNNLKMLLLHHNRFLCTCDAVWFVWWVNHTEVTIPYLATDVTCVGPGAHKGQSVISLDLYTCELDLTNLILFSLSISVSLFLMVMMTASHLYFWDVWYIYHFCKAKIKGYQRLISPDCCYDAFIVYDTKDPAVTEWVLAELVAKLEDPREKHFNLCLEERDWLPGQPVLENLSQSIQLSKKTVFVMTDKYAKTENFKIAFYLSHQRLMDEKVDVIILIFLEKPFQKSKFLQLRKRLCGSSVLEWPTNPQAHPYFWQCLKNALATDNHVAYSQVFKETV
Summary of the method: as §1

[3] = test system: THP-1 cells; assay: Measurement of IL-1β production, hTRF protocol (second alternative procedure), THP-1 cells; format: cell-based, human; settings: Homo sapiens, THP-1, IL-1β production, read-out: NLRP3 hILIB EC50
Summary of the method: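 Compounds, dilution series starting at a final 10 μM, were incubated 2 hours at 37° C with PMA-differentiated THP-1 cells (50 ng/ml overnight; 50,000 cells/well, 2% FBS RPMI). Released IL-1β quantified in supernatant by hTRF kit with 1:40 antibody dilution, 4° C overnight, 665/615 nm ratio.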

Compound | EC50 ([1]; activity range class) | EC50 ([2]; activity range class) | EC50 ([3]; human) | EC50 ([1]; activity range) | EC50 ([2]; activity range) | EC50 ([3]; human cells)
Nc1nc2cc(-c3cc[nH]n3)ccc2c2cn(CCCOc3ccccc3F)nc12 [Example 7] | > 100 µM | > 100 µM | 0.42 µM | – | – | –
Nc1nc2cc(-c3cc[nH]n3)ccc2c2[nH]c(CN3CCOCC3)c(Cl)c12 [Example 486] | – | – | – | > 100 µM | > 100 µM | 0.13 µM
CO[C@@H](CO)Cn1cc2c(n1)c(N)nc1cc(-c3cc[nH]n3)ccc12 [Example 459] | – | – | – | > 100 µM | > 100 µM | 0.27 µM
CCn1cc2c(N)nc3cc(-c4cc[nH]n4)ccc3c2n1 [Example 334] | > 100 µM | > 100 µM | 0.11 µM | – | – | –
CCOCCn1cc2c(n1)c(N)nc1cc(-n3cccn3)ccc12 [Example 10, 2-(2-ethoxyethyl)-7-(1H-pyrazol-1-yl)-2H-pyrazolo[3,4-c]quinolin-4-amine] | 1 to 20 µM | 20 to 100 µM | 1 µM | – | – | –
Nc1nc2cc(-c3cc[nH]n3)ccc2c2cn(CC(=O)N3CC(F)C3)nc12 [Example 543] | – | – | – | > 100 µM | > 100 µM | 2.03 µM
Nc1nc2cc(-c3cc[nH]n3)ccc2c2c1cnn2C1CCOC1 (stereo not drawn) [Example 240] | > 100 µM | > 100 µM | 0.62 µM | – | – | –
CC(CO)n1cc2c(n1)c(N)nc1cc(-c3ccn[nH]3)ccc12 (stereo not drawn) [Example 453] | – | – | – | > 100 µM | > 100 µM | 0.31 µM
NC(=O)Cn1cc2c(n1)c(N)nc1cc(-c3ccn[nH]3)ccc12 [Example 191] | > 100 µM | > 100 µM | 7.19 µM | – | – | –
Cc1nc(C(=O)NCCn2cc3c(n2)c(N)nc2cc(-c4cc[nH]n4)ccc23)cs1 [Example 43] | > 100 µM | > 100 µM | 0.46 µM | – | – | –
CCN(CC)C(=O)C(C)n1cc2c(N)nc3cc(-c4ccn[nH]4)ccc3c2n1 (stereo not drawn) [Example 583] | – | – | – | > 100 µM | > 100 µM | 1.82 µM
Nc1nc2cc(-c3cc[nH]n3)ccc2c2nn(Cc3cc[nH]n3)cc12 [Example 357] | > 100 µM | > 100 µM | 0.19 µM | – | – | –
COc1ccc(C(=O)NCCn2cc3c(n2)c(N)nc2cc(-c4cc[nH]n4)ccc23)nn1 [Example 51] | > 100 µM | > 100 µM | 18.8 µM | – | – | –
CCC(=O)NC(C)Cn1cc2c(N)nc3cc(-c4ccn[nH]4)ccc3c2n1 (stereo not drawn) [Example 297] | > 100 µM | > 100 µM | 2.83 µM | – | – | –
Nc1nc2cc(-c3cc[nH]n3)ccc2c2nn(CCCO)cc12 [Example 215] | > 100 µM | > 100 µM | 0.4 µM | – | – | –
CC(C)NCCn1cc2c(N)nc3cc(-c4ccn[nH]4)ccc3c2n1 [Example 275] | > 100 µM | > 100 µM | 1.73 µM | – | – | –
CC(=O)NC(C)Cn1ncc2c(N)nc3cc(-c4cc[nH]n4)ccc3c21 (stereo not drawn) [Example 429] | – | – | – | > 100 µM | > 100 µM | 13 µM
COCC(=O)NC(C)Cn1cc2c(N)nc3cc(-c4ccn[nH]4)ccc3c2n1 (stereo not drawn) [Example 296] | > 100 µM | > 100 µM | 1.7 µM | – | – | –
Nc1nc2cc(-c3ccn[nH]3)ccc2c2sc(CCCO)nc12 [Example 142, 3-[4-amino-7-(1H-pyrazol-3-yl)-[1,3]thiazolo[4,5-c]quinolin-2-yl]propan-1-ol] | 20 to 100 µM | > 100 µM | 1.5 µM | – | – | –
CC(=O)NCCCn1cc2c(n1)c(N)nc1cc(-c3cc[nH]n3)ccc12 [Example 126] | > 100 µM | > 100 µM | 5.34 µM | – | – | –
Nc1nc2cc(-n3cccn3)ccc2c2cn(CCN3CCCC3=O)nc12 [Example 11] | > 100 µM | 20 to 100 µM | 2.09 µM | – | – | –
COCCn1cc2c(N)nc3cc(-n4cccn4)ccc3c2n1 [Example 247, 2-(2-methoxyethyl)-7-(1H-pyrazol-1-yl)-2H-pyrazolo[4,3-c]quinolin-4-amine] | > 100 µM | > 100 µM | 0.44 µM | – | – | –
COC1CCN(C(=O)CC(C)n2cc3c(N)nc4cc(-c5cc[nH]n5)ccc4c3n2)CC1 (stereo not drawn) [Example 623] | – | – | – | > 100 µM | > 100 µM | 17.3 µM
COCCCn1cc2c(N)nc3cc(-c4cc[nH]n4)ccc3c2n1 [Example 303] | > 100 µM | > 100 µM | 0.21 µM | – | – | –
COc1ccc(CNCCn2cc3c(n2)c(N)nc2cc(-c4cc[nH]n4)ccc23)cc1 [Example 111] | > 100 µM | 20 to 100 µM | 2.09 µM | – | – | –
NCc1cc2c(N)nc3cc(-n4cccn4)ccc3c2[nH]1 [Example 437] | – | – | – | > 100 µM | > 100 µM | 0.56 µM
CC(C)NCCn1cc2c(n1)c(N)nc1cc(-c3cc[nH]n3)ccc12 [Example 109] | 20 to 100 µM | 20 to 100 µM | 1.78 µM | – | – | –
Nc1nc2cc(-c3cc[nH]n3)ccc2c2nn(C3COCC3O)cc12 (stereo not drawn) [Example 323] | > 100 µM | > 100 µM | 0.78 µM | – | – | –

From patent US12037344B2, “NLRP3 modulators” (INNATE TUMOR IMMUNITY, INC., priority 2018, dated 2024)
